Among the data in patent US12357574B2, “Particle coating method” (University of Limerick, priority 2020, dated 2025) are dissolution percentage values, retold here.

This series is described as follows: Dissolution percentage as a function of time, UV spectrophotometry. As to conditions: API as received. It counts as physicochemical. As for the experimental part:
The dissolution percentage as a function of time was measured by respectively dissolving the as received CBZ and the coated MCC carrier particles in methanol (although other dissolution media could be used). UV spectrophotometry was used to measure the concentration of the CBZ dissolved in the methanol.

Structures are written as SMILES.

Consider `NC(=O)N1c2ccccc2C=Cc2ccccc21` [Carbamazepine, carbamazepine], for which the dissolution percentage entry is recorded as “approximately 80%” (after approximately 50 minutes, methanol) and “less than 40%” (within 10 minutes, methanol).

With `Cc1nc2n(c(=O)c1CCN1CCC(c3noc4cc(F)ccc34)CC1)CCCC2` [Risperidone, risperidone], the dissolution percentage entry (after approximately 60 minutes) was “less than 40%”.
